Data reported in patent publication US12522587B2, “Cancer treatments targeting cancer stem cells” (Remedy Plan, Inc., priority 2018, dated 2026).

Tested on: AGS human gastric adenocarcinoma cells
Assay: Human microarray study (Affymetrix Clariom S) of treated AGS cells
Assay type: cell-based
Conditions: two days, positive = downregulated
Method: AGS human gastric adenocarcinoma cells were treated with compound I-1, or DMSO alone (as a negative control) for two days. After two days, RNA was isolated from compound I-1 treated cells and DMSO treated cells, in duplicate, and subjected to microarray analysis using AFFYMETRIX CLARIOM S microarrays. Data were represented as fold change relative to the compound I-1 treated cells, negative values represented genes that were on higher in compound I-1 treated cells than in DMSO treated cells, and positive values represented genes that were on higher in DMSO treated cells than in compound I-1 treated cells. Values were averaged for the duplicate samples. We included data for the genes whose expression was altered by more than 3 fold, either up or down, in response to compound I-1.
Negative numbers indicate fold upregulation upon drug treatment. Positive numbers indicate fold downregulation upon drug treatment. […] In addition, Chac1, PCK2, and SLC7A11 were all shown to have a tumor promoting activity and to be associated with the more dangerous and lethal forms of cancer, and these three genes were the three most strongly repressed genes measured in this analysis. There were other examples in the data that supported this model, but the overall model was that compound I-1 increased the expression of tumor suppressor genes, and decreased the expression of tumor promoting genes.

Structure (SMILES): CCC(=O)N1CCc2cc(-c3ccc(C(=O)NCc4cccnc4)cc3)ccc21 [Compound I-1]
- Fold Change CEBPG: 3.29 fold
- Fold Change CHAC1: 43.64 fold
- Fold Change CRNDE: 7.6 fold
- Fold Change CTH: 12.23 fold
- Fold Change CTNS: 3.16 fold
- Fold Change CYP1A1: 12.34 fold
- Fold Change DCLRE1A: 3.36 fold
- Fold Change DDIT3: 3.76 fold
- Fold Change DDIT4: 14.73 fold
- Fold Change DEPTOR: 3.05 fold
- Fold Change DMBT1: 3.25 fold
- Fold Change EEF2KMT: 4.01 fold
- Fold Change EFHC1: 3.67 fold
- Fold Change EIF4EBP1: 6.66 fold
- Fold Change ERICH2: 3.35 fold
- Fold Change EXOSC8: 3.68 fold
- Fold Change FAIM: 3.09 fold
- Fold Change FAM27E3: 4.39 fold
- Fold Change FAM86B1: 3.53 fold
- Fold Change FAM86C1: 3.18 fold
- Fold Change FAM111B: 3.46 fold
- Fold Change FAM216A: 3 fold
- Fold Change FIGNL1: 4.84 fold
- Fold Change FILIP1L: 3.7 fold
- Fold Change FUT1: 3.48 fold
- Fold Change GARS: 3.24 fold
- Fold Change GEN1: 3.39 fold
- Fold Change GPX8: 3.7 fold
- Fold Change GRB10: 3.1 fold
- Fold Change GSTM2: 3.25 fold
- Fold Change GSTM4: 4.02 fold
- Fold Change GTPBP2: 4.3 fold
- Fold Change H1F0: 3.59 fold
- Fold Change HAX1: 3.68 fold
- Fold Change HIST1H1B: 4.91 fold
- Fold Change HIST1H1C: 4.26 fold
- Fold Change HIST1H1D: 5.18 fold
- Fold Change HIST1H1E: 3.75 fold
- Fold Change HIST1H2AB: 6.88 fold
- Fold Change HIST1H2AE: 5.92 fold
- Fold Change HIST1H2AG: 5.06 fold
- Fold Change HIST1H2AI: 5.81 fold
- Fold Change HIST1H2AJ: 3.77 fold
- Fold Change HIST1H2AK: 3.52 fold
- Fold Change HIST1H2AL; HIST1H2BN: 3.72 fold
- Fold Change HIST1H2AM; HIST1H3J: 6.91 fold
- Fold Change HIST1H2BB: 3.09 fold
- Fold Change HIST1H2BE: 3.05 fold
- Fold Change HIST1H2BF: 3.75 fold
- Fold Change HIST1H2BG: 3.8 fold
- Fold Change HIST1H2BH: 3.09 fold
- Fold Change HIST1H2BI: 8.02 fold
- Fold Change HIST1H2BJ: 4.83 fold
- Fold Change HIST1H2BK: 3.06 fold
- Fold Change HIST1H2BL: 5.51 fold
- Fold Change HIST1H2BM: 12.33 fold
- Fold Change HIST1H3A: 3.04 fold
- Fold Change HIST1H3B: 5.94 fold
- Fold Change HIST1H3D; HIST1H2AD: 4.82 fold
- Fold Change HIST1H3F: 6.21 fold
- Fold Change HIST1H3G: 9.34 fold
- Fold Change HIST1H3H: 7.63 fold
- Fold Change HIST1H3I: 4.49 fold
- Fold Change HIST1H4A: 5.75 fold
- Fold Change HIST1H4D: 3.02 fold
- Fold Change HIST1H4H: 3.25 fold
- Fold Change HIST2H2AA3; HIST2H2AA4: 3.2 fold
- Fold Change HIST2H2AA4; HIST2H2AA3: 3.08 fold
- Fold Change HIST2H3A: 10.31 fold
- Fold Change HIST2H3A; HIST2H3C: 8.95 fold
- Fold Change HIST2H3D: 4.21 fold
- Fold Change HIST2H4A; HIST2H4B: 3.94 fold
- Fold Change HIST2H4B; HIST2H4A: 3.79 fold
- Fold Change HMMR: 4.62 fold
- Fold Change HOXB9: 5.66 fold
- Fold Change IARS: 3.29 fold
- Fold Change IFRD1: 6.11 fold
- Fold Change IFT88: 4.63 fold
- Fold Change IGF2BP3: 5.34 fold
- Fold Change IL20RB: 4.75 fold
- Fold Change INHBE: 12.74 fold
- Fold Change IRAK1BP1: 3.59 fold
- Fold Change IZUMO1: 4.5 fold
- Fold Change JDP2: 4.94 fold
- Fold Change KIF15: 3.66 fold
- Fold Change KIF21B: 3.52 fold
- Fold Change KLHL5: 3.17 fold
- Fold Change LGALS4: 3.06 fold
- Fold Change LMO4: 3.1 fold
- Fold Change LRRC8D: 3.82 fold
- Fold Change LYRM7: 3.58 fold
- Fold Change MARS; MIR6758: 3.79 fold
- Fold Change MAT2A: 5.04 fold
- Fold Change MB21D2: 4.66 fold
- Fold Change METTL4: 4.39 fold
- Fold Change MINA: 3.05 fold
- Fold Change MIR17HG; MIR17; MIR18A; MIR19A; MIR19B1; MIR20A; MIR92A1: 3.18 fold
- Fold Change MOCOS: 5.87 fold
- Fold Change MTHFD2: 3.26 fold
- Fold Change NCOA5: 3 fold
- Fold Change NCOA7: 3.2 fold
- Fold Change NEDD4: 3.11 fold
- Fold Change NOX1: 6.01 fold
- Fold Change NPIPA2: 3.06 fold
- Fold Change NPIPA3: 3.17 fold
- Fold Change NPIPA5: 3.15 fold
- Fold Change NPIPA7; NPIPA8; PKD1P1: 3.01 fold
- Fold Change NPIPA8: 3.2 fold
- Fold Change NUPR1: 5.76 fold
- Fold Change ORAOV1: 3.3 fold
- Fold Change PCK2: 17.83 fold
- Fold Change PDK1: 3.5 fold
- Fold Change PHLDB2; PLCXD2: 3.75 fold
- Fold Change PKD1; MIR6511B2; MIR6511B1: 3.36 fold
- Fold Change PKD2: 3.76 fold
- Fold Change PKDCC: 3.89 fold
- Fold Change PRIM1: 4.42 fold
- Fold Change PSAT1: 7.92 fold
- Fold Change PSPH: 4.23 fold
- Fold Change PTER: 3.93 fold
- Fold Change PTPRB: 3.96 fold
- Fold Change PYROXD1: 3.74 fold
- Fold Change RASGRP3: 3.19 fold
- Fold Change RASIP1: 3.21 fold
- Fold Change RBBP9: 3.05 fold
- Fold Change RBCK1: 4.36 fold
- Fold Change REG4: 3.04 fold
- Fold Change RFXAP: 4.14 fold
- Fold Change RNF170; MIR4469: 3.95 fold
- Fold Change S100P: 4.36 fold
- Fold Change SERPINB8: 6.07 fold
- Fold Change SETMAR: 3.32 fold
- Fold Change SH2B3: 4.5 fold
- Fold Change SHMT2: 3.22 fold
- Fold Change SLC1A4: 8.26 fold
- Fold Change SLC1A5: 4.04 fold
- Fold Change SLC6A9: 7.78 fold
- Fold Change SLC7A1: 3.19 fold
- Fold Change SLC7A5: 7.31 fold
- Fold Change SLC7A11: 15.27 fold
- Fold Change SLC16A4: 3.65 fold
- Fold Change SLC38A1: 3.03 fold
- Fold Change SLC43A1: 8.25 fold
- Fold Change SLC46A1: 5.39 fold
- Fold Change SLCO1B3: 3.61 fold
- Fold Change ST6GALNAC3: 4.78 fold
- Fold Change STAMBPL1: 3 fold
- Fold Change STPG1: 3.97 fold
- Fold Change SYNPO: 3.2 fold
- Fold Change TADA2A: 3.37 fold
- Fold Change TFF1: 11.81 fold
- Fold Change THOC1: 3.18 fold
- Fold Change TMEM218: 3.29 fold
- Fold Change TNFRSF9: 8.19 fold
- Fold Change TSEN15: 3.5 fold
- Fold Change TUBE1: 5.83 fold
- Fold Change UNC93A: 3.31 fold
- Fold Change WARS: 4.85 fold
- Fold Change WBP4: 3.63 fold
- Fold Change XPA: 3.25 fold
- Fold Change XRCC2: 3.5 fold
- Fold Change YAE1D1: 3.02 fold
- Fold Change ZBED8: 4.58 fold
- Fold Change ZC3H8: 4.04 fold
- Fold Change ZCCHC8: 3.9 fold
- Fold Change ZFAND1: 3.29 fold
- Fold Change ZNF302: 4.83 fold
- Fold Change ZNF518A: 4.12 fold
- Fold Change ZNF780B (first ZNF780B entry): 3.19 fold
- Fold Change ZNF780B (second ZNF780B entry): 3.19 fold
